Test results taken from patent US7777038B2, “Carbostyril compound” (Otsuka Pharmaceutical Co., Ltd., priority 2004, dated 2010).

What was measured:
[1] = tested on: acetic acid-induced gastric ulcers; assay: Healing effects on rat models with acetic acid-induced gastric ulcers; type: in vivo; settings: oral, once a day for 8 days, dose 10 mg/kg, ulcerated area vs vehicle (0.5% CMC)
Method: Healing Effects on Rat Models with Acetic Acid-Induced Gastric Ulcers
(1) Production of Gastric Ulcer by Acetic Acid
Rats were fasted from the previous day. A celiotomy was done in each rat under ether anesthesia, and the stomach was exteriorized. Subsequently, 20 μL of a 30% acetic acid solution was injected into the submucosa at the junction of the body of the glandular stomach and the pyloric antrum using a disposable syringe to produce a gastric ulcer.
(2) Test Compound Administration
Each test compound was suspended in a 0.5% carboxymethylcelullose (CMC) solution at concentrations of 0.75 or 2.5 mg/ml. The rats were orally administrated once a day for 8 days starting with the forth day from operation at doses of 3 or 10 mg/kg. A gastric tube and a syringe were used for the oral administration. […]
On the next day the vehicle and the test compound were finally administrated to the rats, the rats were sacrificed by exsanguination under anesthesia with ether, and each stomach was removed. The removed stomachs were fixed in 1% formalin for 15 minutes, dissected along the greater curvature of stomach to expose the ulcer, and the ulcerated area was measured. […]
The ulcerated area was measured under a stereo microscope (10×) with an ocular micrometer (1 mm^2/grid), and the percentage healing ratio was calculated. The percentage healing ratio was calculated by the following formula.

[2] = tested on: human Trefoil Factor 2 (hTFF2) gene; assay: hTFF2 gene reporter assay (luciferase) using pGL3-hTFF2pro•pWL-neo/MKN-45 #6-2 cell line; type: cell-based; settings: test compound concentration 10^−6 M; 24 hours culture; luciferase activity as control % of dimethylsulfoxide-added wells (100%)
Method: Transcription promoting activity on human Trefoil Factor 2 (hTFF2) gene of test compounds was evaluated by means of an hTFF2 gene reporter assay.
(1) Preparation of hTFF2 Gene Reporter Vector pGL3-hTFF2pro
DNA was extracted from HeLa cells (CCL-2, DAINIPPON PHARMACEUTICAL CO., LTD.) using a deoxyribonucleic acid (DNA) extraction kit (DNeasy™ Tissue Kit, manufactured by QIAGEN). The hTFF2 promoter region was amplified using the extracted DNA as a template by means of the polymerase chain reaction (PCR). The oligomers 5′-[…]-3′ and 5′-[…]-3′ were selected as PCR primers to be amplified, based on the report by Beck et al. (Beck S., Sommer P., Blin N., Gott P., 5′-flanking motifs control cell-specific expression of trefoil factor genes (TFF), Int. J. Mol. Med. 2(3), 353-361 (1998)). Platinum® Pfx DNA polymerase was used as DNA polymerase. The PCR was performed under the conditions of denaturing for 30 seconds at 95° C., annealing for 30 seconds at 55° C. and extending for 75 seconds at 68° C., and the procedures were repeated for 32 cycles.
The PCR products were separated and purified by 1% agarose gel electrophoresis, and cloned to a pCR-BluntII-TOPO vector attached to a cloning kit (Zero Blunt® TOPO® PCR Cloning Kit, manufactured by Invitrogen Corporation). The produced plasmid pCR-Blunt-TFF2pro was introduced into E. coli for transformation (TOP 10 Ultracomp™ Cells, manufactured by Invitrogen Corporation), and transformant strain pCR-Blunt-TFF2pro/TOP10 was selectively cultured in LB agar medium containing 30 μg/ml of Zeocin (Zeocin, manufactured by Invitrogen Corporation). The pCR-Blunt-TFF2pro/TOP10 was subjected to shaking culture in 50 ml of LB medium containing 30 μg/ml of Zeocin at 37° C. over night, and a plasmid was prepared using a plasmid preparation kit (Concert™ High Purity Midiprep System, manufactured by GIBCO BRL).
The nucleotide sequence of the PCR product cloned to the plasmid pCR-Blunt-TFF2pro was determined. The determined nucleotide sequence was compared with the counterpart of hTFF2 promoter region reported in a gene bank (GenBank accession AB038162). The nucleotide sequence of the MluI-HindIII region cloned in pCR-Blunt-TFF2pro was identical to GenBank accession AB038162 (FIG. 1).
The underlined portions indicate the recognition sequence (ACGCGT) of the restriction enzyme MluI and the recognition sequence (AAGCTT) of the restriction enzyme HindIII. The nucleotide sequences of the MluI-HindIII region are identical between the hTFF2 promoter region reported in GenBank and the PCR product cloned to the plasmid pCR-Blunt-TFF2pro. […]

SMILES | melting point [°C] | Healing Ratio (%) [1] [%] | TFF2 Production Promoting Activity [2]
COc1ccc(CC2SC(=O)NC2=O)c2ccc(=O)n(C)c12 (stereo not drawn) [Example 1, 5-(8-methoxy-1-methyl-2-oxo-1,2-dihydroquinolin-5-ylmethyl)thiazolidine-2,4-dione] | 254 to 255 | >20 | –
COC(=O)c1ccc(CN2C(=O)CCc3c(CC4SC(=O)NC4=O)ccc(OC)c32)cc1 (stereo not drawn) [Example 25, 5-[8-methoxy-1-(4-methoxycarbonylbenzyl)-2-oxo-1,2,3,4-tetrahydroquinolin-5-ylmethyl]thiazolidine-2,4-dione] | 193.1 to 195.5 | – | ++ (a TFF2 production promoting activity of 1000% or higher at a test compound concentration of 10^−6 M)
COc1ccc(CC2SC(=S)NC2=O)c2c1N(CCC(C)C)C(=O)CC2 (stereo not drawn) [Example 1315, 8-methoxy-1-(3-methylbutyl)-5-(4-oxo-2-thioxothiazolidin-5-ylmethyl)-3,4-dihydro-1H-quinolin-2-one] | 139.5 to 141 | – | ++ (a TFF2 production promoting activity of 1000% or higher at a test compound concentration of 10^−6 M)
